Reference: patent publication US20250019344A1, “CREATINE CARBONATE AND METHODS OF PRODUCTION AND USES” (ThermoLife International, LLC, priority 2023, published 2025)

Experiments:
Assay type in all cases: in vivo, human
[1] = Knee extension exercise at 80% maximum weight after creatine supplementation; conditions: at end of supplementation, 20 g once per day with 1000 ml water; usual 6 extensions (control)
From the text: (§1) At the end on day 5, the subject was able to perform 8 knee extensions at 80% maximum weight (200 lbs.). This was 2 more than their usual 6 extensions with this weight (control). So, creatine supplementation with creatine monohydrate improved the subject's physical performance though with gastrointestinal side effects.
(§2) After a washout period of 14 days, where the subject ingested no creatine supplements, they began a second period of creatine supplementation with 20 g creatine carbonate, also taken once per day with 1000 ml water. […] At the end of the creatine supplementation with creatine carbonate, the subject again evaluated the effect of creatine supplementation with knee extension exercises at 80% maximum weight (200 lbs.). They performed 10 extensions, which was better than either the control or after 5 days of creatine monohydrate supplementation.

[2] = Gastrointestinal tolerability after oral creatine supplementation in a subject; conditions: for gastrointestinal side effects: 20 g once per day with 1000 ml of water, monohydrate for 5 consecutive days, carbonate after 14 days washout
Description: A subject, trained, was administered 5 g creatine carbonate and monitored for any gastrointestinal tract symptoms. […] In contrast, the subject would develop a bloated stomach with creatine supplements currently on the market.
as §1, §2

[3] = Blood lactate after treadmill exercise (Heartscare C1 lactate monitoring system); conditions: person; treadmill 5 miles per hour for 10 minutes, 60 minutes after ingesting 10 g; without supplement 8.1 mmol/L
Description: A recreationally active person used the treadmill at 5 miles per hour for 10 minutes and measured their lactate levels using a Heartscare C1 lactate monitoring system. Their blood lactate measured at 8.1 mmol/L. After a two-day washout period, they repeated the same treadmill exercise 60 minutes after ingesting 10 g creatine carbonate. Their blood lactate measured at 7.1 mmol/L. Thus, even without creatine loading, creatine carbonate can reduce lactate production from exercise, as measured by blood lactate level.

Row | Compound | knee extensions performed at 80% maximum weight (200 lbs.) [1] | gastrointestinal side effects [2] | gastrointestinal tract symptoms ([2]; subject, trained, 5 g administered) | onset of gastrointestinal distress ([2]; up to 20 grams orally administered to subjects) | blood lactate [3]
1 | CN(CC(=O)O)C(=N)N.O=C(O)O [creatine carbonate] | 10 | Besides light belching, no other gastrointestinal side effects were noted | did not experience any unwanted gastrointestinal tract issues except a little belching | without onset of gastrointestinal distress | 7.1 mmol/L
2 | CN(CC(=O)O)C(=N)N.O [creatine monohydrate, reference compound] | 8 | gastrointestinal disturbances, such as diarrhea and stomach bloating, occurred |  |  | 
